Data on four compounds can be found in paper PMC7259758 (PLoS ONE, 2020).

Where two headings read alike, the source gives them in different places.

Assay [1] has as its system triple-exon skipping of MDM2 pre-mRNA in SK-MEL-2/Luc-MDM2 cells. The assay can be described thus: TESLR (Triple Exon Skipping Luciferase Reporter) dose response. Conditions: for EC50: read-out: TESLR EC50; for TESLR Maximum fold change: 4 hours.
Procedure: SK-MEL-2/MDM2-Luc stable cells were cultured in MEM medium with Earle's salts and L-glutamine containing 1 mM sodium pyruvate, 10% FCS and 10 mM Hepes and plated at a density of 10,000/well in 96-well plates and incubated overnight at 37°C in 5% CO2. The following day, cells were treated with serial dilutions of compounds for 4 hrs, ONE-Glo reagents (Promega) were added to measure the luciferase activity on an EnVision plate reader. SD6 and 0.5% DMSO were used as positive and negative controls, respectively. Relative luminescent units were plotted against corresponding drug concentrations and fitted with a standard four parameter sigmoidal curve with GraphPad Prism.
The TESLR assay in SK-MEL-2/Luc-MDM2 cells with 4 hour treatment. SK-MEL-2/Luc-MDM2 stable cells were plated at a density of 20,000 cells/well in 96-well plates and incubated overnight at 37°C in 5% CO2. The following day, cells were treated with either 0.5% DMSO or serial dilution of hits identified from the library screen in 0.5% DMSO for 4 hours. ONE-Glo™ EX reagent (Promega) was added to measure the luciferase activity using an EnVision plate reader. Relative luminescent units were plotted against corresponding drug concentrations and fitted with a standard four parameter sigmoidal curve with GraphPad Prism.
SK-MEL-2/Luc-MDM2 stable cells were plated at a density of 20,000 cells/well in 96-well plates and incubated overnight at 37°C in 5% CO2. The following day, cells were treated with serial dilutions of the indicated compounds for 4 hours and ONE-Glo™ EX reagents (Promega) were added to measure the luciferase activity.
For assay [2], the system named is MDM2 pre-mRNA splicing in Rh18 cells. Briefly: RT-PCR confirmation of splicing changes, MDM2. The class given is cell-based. The following applies: 4 h, SD6 10 μM, compound 1 10 μM, compound 2 5 μM, compound 3 10 μM. Here is the method:
RH-18 cells were cultured in RPMI 1640 medium containing 10% FCS. Cells are all maintained in humidified incubator with 5% CO2 at 37°C. Rh18 cells were exposed to 0.5% DMSO or SD6 10 μM, Cpd1 10 μM, Cpd2 5 μM or Cpd3 10 μM for 4 h. Total RNA was extracted and converted to cDNA. PCR was performed using NEB Q5 Master Mix and specific primers listed below (Table 2) according to the manufacturer’s instruction and standard PCR protocols: 50 ng cDNA and 30 μl of the final reaction volume was used. PCR products were subjected to 3% agarose gel electrophoresis.
AS patterns were identified with compound treatment for MDM2 and RBM39 transcripts. Ubiquitin (UBQ) transcripts were used as a control since these are not spliced. […] Rh18 cells were treated with either DMSO control or compounds for 4 h. Total RNA was extracted and converted to cDNA. PCR was performed using corresponding primers and PCR products were subjected to 3% agarose gel electrophoresis.

In assay [3] the target is T1, SF3B1 (Homo sapiens, UniProt O75533+Q7RTV0).
T1 construct: endogenous in cells
Briefly: Competitive antagonist assay (TESLR in the presence of SD6 or hit compound). The format is cell-based. Conditions: 6 μM compound for one hour, then serial dilutions of sudemycinol C for another 4 hours. On the procedure:
SK-MEL-2/Luc-MDM2 stable cells were plated at a density of 20,000 cells/well in 96-well plates and incubated overnight at 37°C in 5% CO2.[27, 28] The following day, cells were treated with 14 analogs using serial dilution for one hour. The list of compounds screened as potential TESLR antagonists are show in SI file. After one-hour pre-treatment, 4 μM of SD6 were added to the pre-treated cells for another 4 hours. Either 0.5% DMSO or serial dilutions of SD6 were used to treat cells for 4 hours as controls. At the end of incubation time, ONE-Glo™ EX reagents (Promega) were added to measure the luciferase activity. […]
Fig 6 Competitive antagonist assay. (Left Panel) The assay that identified two antagonists of SD6 activity in the TESLR screen, which are useful for the determination of SF3B1 binding. Relative luminescent units were plotted against corresponding drug concentrations and fitted with a standard four parameter sigmoidal curve with GraphPad Prism. (Right Panel) The structures of the antagonists and SD6. See SI for chemistry details.
. SK-MEL-2/Luc-MDM2 stable cells were plated at a density of 20000/well in 96-well plates and incubated overnight at 37°C in 5% CO2. […]. After one-hour pre-treatment, serial dilutions of the sudemycinol C were added to the pre-treated cells for another 4 hours. […]. At the end of incubation time, ONE-Glo™ EX reagents (Promega) were added to measure the luciferase activity. […]. DR: dose response.

Assay [4] deals with T2, CDK2/cyclinA (h) (Homo sapiens, UniProt P24941).
T2 construct: purchased Eurofins, Dundee, Scotland
The assay can be described thus: Radiometric protein kinase assay (Eurofins). Conditions: ATP 45 μM. The format is biochemical.
Procedure: Enzymatic biochemical activities were evaluated in radiometric protein kinase assays (Eurofins, Dundee, Scotland). Kinases are incubated with buffer, substrate and [γ-^33P]-ATP (specific activity approx. 500 cpm/pmol, concentration as required). The reaction is initiated by the addition of the MgATP mix. After incubation for 40 minutes at room temperature, the reaction is stopped by the addition of 3% phosphoric acid solution. 10 μL of the reaction is then spotted onto a P30 filtermat and washed three times for 5 minutes in 75 mM phosphoric acid and once in methanol prior to drying and scintillation counting. All compounds are prepared to 50x final assay concentration in 100% DMSO. Positive control wells contain all components of the reaction with 2% DMSO. Blank wells contain all components of the reaction, with a reference inhibitor replacing the compound of interest. […] Compounds were screened at 1 μM in duplicate or tested at 10 concentrations at half log dilution starting from 10 μM in singlicate. Dose response curves were fitted with four parameter logistic curve to obtain IC50 values.

In assay [5] the test system is phosphorylation of SF3B1. The assay can be described thus: Western blot of nuclear extracts, phosphor-SF3B1. Conditions: 4 h.
Procedure: (§3) HCT116 cells were seeded at 3 million cells per 100 mm culture plate. The next day cells were treated with 5 μM or 10 μM of each compound for 4h and 8h. […] The pellet was snap frozen on dry ice and then thawed and spun at 12K rpm for 5 min, 4C. The supernatant was collected (nuclear extract) and protein concentrations determined using BCA Protein Assay Kit. […] The proteins were transferred to PVDF membrane using a wet transfer system. […] After the secondary antibody incubation, membranes were washed 4X with PBS containing 0.1% Tween-20 and 1X with PBS before imaging using the Li-Cor Odyssey imaging system.
(§4) Lanes 6 to 10 are nuclear extracts from Rh18 cells.
The target in assay [6] is T3, AKT3 (Homo sapiens, UniProt Q9Y243).
T3 construct: purchased Eurofins, Dundee, Scotland
Briefly: Radiometric protein kinase assay (Eurofins). Conditions: ATP 45 μM. The format is biochemical. On the procedure:
(§1) Enzymatic biochemical activities were evaluated in radiometric protein kinase assays (Eurofins, Dundee, Scotland). Kinases are incubated with buffer, substrate and [γ-^33P]-ATP (specific activity approx. 500 cpm/pmol, concentration as required). The reaction is initiated by the addition of the MgATP mix. After incubation for 40 minutes at room temperature, the reaction is stopped by the addition of 3% phosphoric acid solution. 10 μL of the reaction is then spotted onto a P30 filtermat and washed three times for 5 minutes in 75 mM phosphoric acid and once in methanol prior to drying and scintillation counting. All compounds are prepared to 50x final assay concentration in 100% DMSO. Positive control wells contain all components of the reaction with 2% DMSO. Blank wells contain all components of the reaction, with a reference inhibitor replacing the compound of interest. Each kinase is assigned a standard assay concentration of ATP within 20 μM of its apparent Km. Compounds were screened at 1 μM in duplicate or tested at 10 concentrations at half log dilution starting from 10 μM in singlicate. Dose response curves were fitted with four parameter logistic curve to obtain IC50 values. […]
(§2) Staurosporine is used as reference for all tested enzymes except for SRPK3 (reference inhibitor: K-252a. Nocardiopsis sp), NEK2 (reference inhibitor: […]), and CK2, CK2α2, MAPK1, MAPK2 (reference inhibitor: PKR Inhibitor). See Table 1 below for additional details.

Assay [7] has as its target T4, SRPK1(h) (Homo sapiens, UniProt Q96SB4).
T4 construct: purchased Eurofins, Dundee, Scotland
Briefly: Radiometric protein kinase assay (Eurofins). The class given is biochemical. The following applies: ATP 10 μM. Here is the method:
as §1, §2

Assay [8] deals with T5, CLK3(h) (Homo sapiens, UniProt P49761).
T5 construct: purchased Eurofins, Dundee, Scotland
The assay can be described thus: Radiometric protein kinase assay (Eurofins). The class given is biochemical. Conditions: ATP 90 μM. On the procedure: as §1, §2

For assay [9], the target named is T6, CLK1(h) (Homo sapiens, UniProt P49759).
T6 construct: purchased Eurofins, Dundee, Scotland
Briefly: Radiometric protein kinase assay (Eurofins). The format is biochemical. Conditions: ATP 10 μM. Here is the method: as §1, §2

In assay [10] the target is T7, DYRK1A(h) (Homo sapiens, UniProt Q13627).
T7 construct: purchased Eurofins, Dundee, Scotland
The assay can be described thus: Radiometric protein kinase assay (Eurofins). The class given is biochemical. Conditions: ATP 45 μM. Here is the method:
as §1, §2

Assay [11] addresses T8, DYRK2 (h) (Homo sapiens, UniProt Q92630).
T8 construct: purchased Eurofins, Dundee, Scotland
T8 sequence (Q92630 1-601): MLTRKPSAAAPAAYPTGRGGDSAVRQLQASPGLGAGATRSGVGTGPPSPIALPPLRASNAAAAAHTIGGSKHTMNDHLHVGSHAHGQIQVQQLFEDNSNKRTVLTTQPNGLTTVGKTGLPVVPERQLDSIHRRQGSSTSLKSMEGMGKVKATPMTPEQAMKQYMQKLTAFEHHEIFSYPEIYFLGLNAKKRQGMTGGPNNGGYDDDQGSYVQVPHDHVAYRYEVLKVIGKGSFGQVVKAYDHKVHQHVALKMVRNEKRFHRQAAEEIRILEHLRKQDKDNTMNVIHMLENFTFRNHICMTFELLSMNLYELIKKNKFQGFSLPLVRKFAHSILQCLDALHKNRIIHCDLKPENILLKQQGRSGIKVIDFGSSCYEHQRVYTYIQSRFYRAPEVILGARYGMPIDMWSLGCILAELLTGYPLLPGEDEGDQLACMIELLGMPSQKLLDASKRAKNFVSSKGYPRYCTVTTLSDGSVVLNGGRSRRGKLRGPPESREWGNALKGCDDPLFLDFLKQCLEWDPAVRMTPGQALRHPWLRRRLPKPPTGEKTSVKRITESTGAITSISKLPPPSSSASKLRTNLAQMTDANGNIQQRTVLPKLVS
The assay can be described thus: Radiometric protein kinase assay (Eurofins). The format is biochemical. The following applies: ATP 15 μM. Here is the method: as §1, §2

In assay [12] the target is T9, MAPK2 (h) (Homo sapiens, UniProt P28482).
T9 construct: purchased Eurofins, Dundee, Scotland
Briefly: Radiometric protein kinase assay (Eurofins). The following applies: ATP 155 μM. The format is biochemical. On the procedure:
as §1, §2

Assay [13] concerns the target T10, GSK3α(h) (Homo sapiens, UniProt P49840).
T10 construct: purchased Eurofins, Dundee, Scotland
The assay can be described thus: Radiometric protein kinase assay (Eurofins). Conditions: ATP 10 μM. The format is biochemical. Here is the method:
as §1, §2

Assay [14] has as its target T11, MAPK1 (h) (Homo sapiens, UniProt P27361).
T11 construct: purchased Eurofins, Dundee, Scotland
The assay can be described thus: Radiometric protein kinase assay (Eurofins). The format is biochemical. On the procedure:
as §1, §2

Assay [15] concerns the target T12, CK2α2 (h) (Homo sapiens, UniProt P19784).
T12 construct: purchased Eurofins, Dundee, Scotland
Briefly: Radiometric protein kinase assay (Eurofins). The format is biochemical. The following applies: ATP 10 μM; read-out: CK2a2 IC50. Here is the method: as §1, §2

The target of assay [16] is T13, CLK4(h) (Homo sapiens, UniProt Q9HAZ1).
T13 construct: purchased Eurofins, Dundee, Scotland
The assay can be described thus: Radiometric protein kinase assay (Eurofins). The format is biochemical. The following applies: ATP 10 μM. Here is the method:
as §1, §2

The target in assay [17] is T14, CK2 (h) (Homo sapiens, UniProt P68400).
T14 construct: purchased Eurofins, Dundee, Scotland
The assay can be described thus: Radiometric protein kinase assay (Eurofins). The format is biochemical. The following applies: ATP 10 μM. Here is the method:
as §1, §2

The target of assay [18] is T15, SRPK3 (h) (Homo sapiens, UniProt Q9UPE1).
T15 construct: purchased Eurofins, Dundee, Scotland
The assay can be described thus: Radiometric protein kinase assay (Eurofins). The class given is biochemical. The following applies: ATP 15 μM. On the procedure: as §1, §2

In assay [19] the target is T16, SRPK2 (h) (Homo sapiens, UniProt P78362).
T16 construct: purchased Eurofins, Dundee, Scotland
Briefly: Radiometric protein kinase assay (Eurofins). The class given is biochemical. Conditions: ATP 10 μM. Here is the method: as §1, §2

Assay [20] deals with T17, DYRK1B (h) (Homo sapiens, UniProt Q9Y463).
T17 construct: purchased Eurofins, Dundee, Scotland
Briefly: Radiometric protein kinase assay (Eurofins). Conditions: ATP 45 μM. The class given is biochemical. On the procedure:
as §1, §2

Assay [21] concerns phosphorylation of SR proteins. The assay can be described thus: Western blot of nuclear extracts, phosphor-SR proteins. Conditions: HCT116 and Rh18 cells, 4 h; SD6 10 μM, compound 1 10 μM, compound 2 5 μM, compound 3 10 μM.
Procedure: as §3, §4
Where [22] appears, read: SK-MEL-2/Luc-MDM2 cells, 4 hour treatment, luciferase activity.
[23] abbreviates: SK-MEL-2/Luc-MDM2 cells, luciferase activity.

T10 sequence (P49840 whole entry): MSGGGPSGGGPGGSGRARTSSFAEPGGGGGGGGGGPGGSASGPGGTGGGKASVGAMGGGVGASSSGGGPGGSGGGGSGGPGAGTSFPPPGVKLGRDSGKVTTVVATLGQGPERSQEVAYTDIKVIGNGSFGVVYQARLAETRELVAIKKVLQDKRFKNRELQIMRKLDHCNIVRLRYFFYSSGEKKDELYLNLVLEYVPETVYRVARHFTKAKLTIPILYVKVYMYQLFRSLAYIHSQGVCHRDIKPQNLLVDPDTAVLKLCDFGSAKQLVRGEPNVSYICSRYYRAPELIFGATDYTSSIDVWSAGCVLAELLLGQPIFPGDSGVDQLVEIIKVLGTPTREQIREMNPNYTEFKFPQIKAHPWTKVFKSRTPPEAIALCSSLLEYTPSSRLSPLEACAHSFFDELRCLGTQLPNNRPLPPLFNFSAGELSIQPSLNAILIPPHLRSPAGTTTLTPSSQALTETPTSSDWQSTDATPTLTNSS
T3 sequence (Q9Y243 whole entry): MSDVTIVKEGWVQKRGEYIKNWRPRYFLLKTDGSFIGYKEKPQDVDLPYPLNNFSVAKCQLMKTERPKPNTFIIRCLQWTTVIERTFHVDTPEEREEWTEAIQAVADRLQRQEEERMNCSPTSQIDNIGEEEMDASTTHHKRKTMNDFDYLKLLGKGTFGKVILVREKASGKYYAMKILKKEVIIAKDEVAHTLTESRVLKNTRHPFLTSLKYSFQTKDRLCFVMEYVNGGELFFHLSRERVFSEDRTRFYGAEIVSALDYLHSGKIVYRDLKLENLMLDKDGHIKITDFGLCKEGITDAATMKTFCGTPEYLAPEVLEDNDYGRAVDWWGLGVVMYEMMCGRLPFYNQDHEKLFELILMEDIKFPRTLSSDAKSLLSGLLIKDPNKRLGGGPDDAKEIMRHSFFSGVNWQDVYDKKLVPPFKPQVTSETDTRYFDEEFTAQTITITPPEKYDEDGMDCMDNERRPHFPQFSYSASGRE
T17 sequence (Q9Y463 whole entry): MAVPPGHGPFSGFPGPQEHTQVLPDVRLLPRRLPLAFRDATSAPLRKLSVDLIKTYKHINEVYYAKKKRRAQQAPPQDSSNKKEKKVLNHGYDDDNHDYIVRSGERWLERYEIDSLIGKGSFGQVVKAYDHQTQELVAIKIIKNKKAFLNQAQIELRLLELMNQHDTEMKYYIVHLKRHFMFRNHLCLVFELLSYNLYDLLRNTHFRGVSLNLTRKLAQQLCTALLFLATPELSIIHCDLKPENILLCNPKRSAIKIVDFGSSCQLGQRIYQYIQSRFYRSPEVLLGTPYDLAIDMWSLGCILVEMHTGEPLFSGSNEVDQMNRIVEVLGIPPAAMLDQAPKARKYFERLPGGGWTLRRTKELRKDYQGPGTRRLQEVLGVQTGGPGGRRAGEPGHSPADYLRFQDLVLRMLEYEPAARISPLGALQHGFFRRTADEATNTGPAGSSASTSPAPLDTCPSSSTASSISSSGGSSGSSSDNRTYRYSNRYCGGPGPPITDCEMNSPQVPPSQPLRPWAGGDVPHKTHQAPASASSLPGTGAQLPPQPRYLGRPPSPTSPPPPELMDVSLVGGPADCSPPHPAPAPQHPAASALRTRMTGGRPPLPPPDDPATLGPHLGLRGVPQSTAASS
T11 sequence (P27361 whole entry): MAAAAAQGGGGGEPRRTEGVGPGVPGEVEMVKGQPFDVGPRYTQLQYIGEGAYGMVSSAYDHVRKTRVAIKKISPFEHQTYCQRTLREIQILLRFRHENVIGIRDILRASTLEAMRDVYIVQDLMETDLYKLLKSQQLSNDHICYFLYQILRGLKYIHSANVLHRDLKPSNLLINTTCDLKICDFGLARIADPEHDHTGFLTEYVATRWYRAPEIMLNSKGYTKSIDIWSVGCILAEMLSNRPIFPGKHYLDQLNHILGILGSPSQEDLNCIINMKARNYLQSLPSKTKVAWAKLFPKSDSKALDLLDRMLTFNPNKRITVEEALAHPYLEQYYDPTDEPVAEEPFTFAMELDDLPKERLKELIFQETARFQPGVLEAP
T9 sequence (P28482 whole entry): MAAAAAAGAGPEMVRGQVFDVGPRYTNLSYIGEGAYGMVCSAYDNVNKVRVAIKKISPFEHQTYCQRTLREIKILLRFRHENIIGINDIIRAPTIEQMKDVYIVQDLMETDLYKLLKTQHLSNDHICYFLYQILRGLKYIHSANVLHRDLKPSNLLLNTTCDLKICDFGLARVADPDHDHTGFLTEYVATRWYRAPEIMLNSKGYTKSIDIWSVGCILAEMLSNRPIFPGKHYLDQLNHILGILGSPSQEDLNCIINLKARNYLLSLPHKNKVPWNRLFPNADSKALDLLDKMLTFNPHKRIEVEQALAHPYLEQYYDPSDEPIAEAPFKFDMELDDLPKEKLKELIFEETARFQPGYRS
T13 sequence (Q9HAZ1 whole entry): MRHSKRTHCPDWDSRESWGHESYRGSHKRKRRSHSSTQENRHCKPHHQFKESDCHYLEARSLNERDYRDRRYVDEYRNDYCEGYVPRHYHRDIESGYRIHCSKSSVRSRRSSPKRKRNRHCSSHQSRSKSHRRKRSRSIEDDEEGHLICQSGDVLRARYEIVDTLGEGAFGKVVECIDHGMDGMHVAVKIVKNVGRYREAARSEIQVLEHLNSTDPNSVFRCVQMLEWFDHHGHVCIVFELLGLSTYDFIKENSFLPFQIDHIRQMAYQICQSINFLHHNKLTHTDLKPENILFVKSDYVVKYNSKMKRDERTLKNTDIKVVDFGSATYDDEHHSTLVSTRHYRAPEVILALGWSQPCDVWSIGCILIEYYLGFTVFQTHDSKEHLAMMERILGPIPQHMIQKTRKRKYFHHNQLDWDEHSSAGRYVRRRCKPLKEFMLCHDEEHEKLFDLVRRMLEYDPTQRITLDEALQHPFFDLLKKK
T5 sequence (P49761 whole entry): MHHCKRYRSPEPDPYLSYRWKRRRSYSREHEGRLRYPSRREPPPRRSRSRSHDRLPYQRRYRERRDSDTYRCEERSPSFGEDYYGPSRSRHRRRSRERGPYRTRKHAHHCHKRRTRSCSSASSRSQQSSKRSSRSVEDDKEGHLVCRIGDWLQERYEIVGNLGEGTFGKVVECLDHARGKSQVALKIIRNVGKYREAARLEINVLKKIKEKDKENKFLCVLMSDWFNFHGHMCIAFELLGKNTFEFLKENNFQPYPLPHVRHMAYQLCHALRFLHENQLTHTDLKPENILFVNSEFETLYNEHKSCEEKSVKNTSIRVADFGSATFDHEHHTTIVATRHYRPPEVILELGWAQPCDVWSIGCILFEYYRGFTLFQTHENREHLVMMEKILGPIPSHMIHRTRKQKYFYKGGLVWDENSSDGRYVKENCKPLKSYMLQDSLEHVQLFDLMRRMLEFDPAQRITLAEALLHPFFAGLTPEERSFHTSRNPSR
T16 sequence (P78362 whole entry): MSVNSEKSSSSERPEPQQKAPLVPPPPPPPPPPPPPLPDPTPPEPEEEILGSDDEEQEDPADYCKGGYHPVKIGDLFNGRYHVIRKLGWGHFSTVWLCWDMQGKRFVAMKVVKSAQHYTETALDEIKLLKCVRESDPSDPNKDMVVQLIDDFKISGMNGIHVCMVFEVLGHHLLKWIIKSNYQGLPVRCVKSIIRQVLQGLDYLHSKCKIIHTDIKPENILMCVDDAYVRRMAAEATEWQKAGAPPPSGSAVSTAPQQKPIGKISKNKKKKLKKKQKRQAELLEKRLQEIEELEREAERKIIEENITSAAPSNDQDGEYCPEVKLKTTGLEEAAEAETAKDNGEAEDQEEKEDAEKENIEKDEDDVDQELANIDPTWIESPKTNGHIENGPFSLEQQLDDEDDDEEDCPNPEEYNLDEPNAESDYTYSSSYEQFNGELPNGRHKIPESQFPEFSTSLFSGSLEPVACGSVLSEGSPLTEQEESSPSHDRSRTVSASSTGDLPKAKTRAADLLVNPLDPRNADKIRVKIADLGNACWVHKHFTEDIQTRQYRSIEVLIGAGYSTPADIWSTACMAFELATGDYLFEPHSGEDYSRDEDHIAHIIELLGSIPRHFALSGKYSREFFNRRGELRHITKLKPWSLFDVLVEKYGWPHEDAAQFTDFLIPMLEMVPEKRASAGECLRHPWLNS
T14 sequence (P68400 whole entry): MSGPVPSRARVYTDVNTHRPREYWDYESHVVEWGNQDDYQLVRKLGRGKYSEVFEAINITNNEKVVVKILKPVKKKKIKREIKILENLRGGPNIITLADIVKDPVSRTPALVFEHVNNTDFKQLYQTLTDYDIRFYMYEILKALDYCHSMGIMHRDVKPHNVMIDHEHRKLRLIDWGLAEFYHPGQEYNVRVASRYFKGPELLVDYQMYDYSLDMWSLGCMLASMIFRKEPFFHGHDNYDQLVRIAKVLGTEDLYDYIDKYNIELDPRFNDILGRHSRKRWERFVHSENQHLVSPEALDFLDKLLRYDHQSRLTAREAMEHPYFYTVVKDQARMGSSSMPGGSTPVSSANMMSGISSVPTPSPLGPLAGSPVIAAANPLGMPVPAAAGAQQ
T14 sequence (P67870 whole entry partner): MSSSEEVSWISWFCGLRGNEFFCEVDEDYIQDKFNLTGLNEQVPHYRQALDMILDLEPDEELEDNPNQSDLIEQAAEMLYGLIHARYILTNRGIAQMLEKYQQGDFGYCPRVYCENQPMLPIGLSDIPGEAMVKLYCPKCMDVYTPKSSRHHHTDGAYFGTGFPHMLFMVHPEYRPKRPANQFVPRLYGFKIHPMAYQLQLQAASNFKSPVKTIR
T12 sequence (P19784 whole entry): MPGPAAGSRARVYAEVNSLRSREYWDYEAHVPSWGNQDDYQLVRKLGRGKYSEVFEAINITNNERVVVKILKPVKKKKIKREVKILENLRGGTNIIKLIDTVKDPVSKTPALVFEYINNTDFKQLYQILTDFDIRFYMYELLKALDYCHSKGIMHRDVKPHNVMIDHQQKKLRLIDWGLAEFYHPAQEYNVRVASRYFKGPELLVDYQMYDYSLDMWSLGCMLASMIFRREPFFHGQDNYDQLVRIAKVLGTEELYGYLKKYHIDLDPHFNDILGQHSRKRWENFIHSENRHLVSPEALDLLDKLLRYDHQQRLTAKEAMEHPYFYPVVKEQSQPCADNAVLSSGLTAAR

On to `CN(c1ncccc1CNc1nc(Nc2ccc3c(c2)CC(=O)N3)ncc1C(F)(F)F)S(C)(=O)=O` [Compound 3, PF-562271], for which the EC50 in assay [1] (setting [22]) came to 5560 nM. Moreover, in assay [2], the “MDM2 alternative splicing (AS) pattern by RT-PCR” value is “dominant MDM2 transcript (the same size as the DMSO control) and an AS isoform of 785 bp”. For the same compound, the “Antagonism of the compound's TESLR activity by sudemycinol C” value in [3] is listed as “did not antagonize”. In addition, the IC50 in assay [4] stood at 203 nM; in [9], 141 nM; in [12], 863 nM; in [13] it was 221 nM; in assay [15], 374 nM; in assay [16], 155 nM. In [5] (HCT116 cells, 10 μM), the “Effect on phosphorylation of SF3B1 (immunoblot)” value is given as “inhibited the phosphorylation of SF3B1 protein in HCT116 cells”. The “AKT3 IC50” value in assay [6] is listed as “NA (NA: Not Active (less than 50% inhibition at 1 micromolar))”. Also, in [7], the “SRPK1 IC50” value was “NA (NA: Not Active (less than 50% inhibition at 1 micromolar))”. Moreover, the “CLK3 IC50” value in assay [8] is on record as “NA (NA: Not Active (less than 50% inhibition at 1 micromolar))”. Besides, the “DYRK1A IC50” value in assay [10] is “NA (NA: Not Active (less than 50% inhibition at 1 micromolar))”. For the same compound, the “DYRK2 IC50” value in assay [11] is on record as “NA (NA: Not Active (less than 50% inhibition at 1 micromolar))”. In addition, the “MAPK1 IC50” value in assay [14] is “NA (NA: Not Active (less than 50% inhibition at 1 micromolar))”. Besides, the “CK2 IC50” value in [17] is given as “NA (NA: Not Active (less than 50% inhibition at 1 micromolar))”. Besides, in [18], the “SRPK3 IC50” value is “NA (NA: Not Active (less than 50% inhibition at 1 micromolar))”. Further, the “SRPK2 IC50” value in assay [19] is recorded as “NA (NA: Not Active (less than 50% inhibition at 1 micromolar))”. Further, the “DYRK1B IC50” value in [20] was “NA (NA: Not Active (less than 50% inhibition at 1 micromolar))”.
As to `COc1ncc2cc(C(=O)Nc3cc(C(=O)NCc4cccc(Cl)c4)ccc3Cl)c(=O)[nH]c2n1` [Mirk-IN-1], the “TESLR Maximum fold change” value in assay [1] (setting [23]) stood at 30.7. In addition, in assay [1] (setting [22]), the EC50 was determined as 15000 nM.
Consider `CNC(=O)OC(C)C=CC(=O)NC1CCC(CC=C(C)C=CC2CC3(CO3)CC(C)(C)O2)CC1` (stereo not shown) [SD6, sudemycin D6], for which the EC50 in assay [1] (Homo sapiens, SK-MEL-2, 4 h) came out at 862 nM. Further, the “TESLR Maximum fold change” value in [1] (setting [23]) was 28.3. In addition, in assay [2], the “MDM2 alternative splicing (AS) pattern by RT-PCR” value was “dominant AS isoform at size of 1019 bp”. Besides, the “Effect on phosphorylation of SR proteins (immunoblot)” value in [21] is “did not inhibit the phosphorylation of SR proteins”. Moreover, the “Effect on phosphorylation of SF3B1 (immunoblot)” value in [5] (HCT116 and Rh18 cells, SD6 10 μM, compound 1 10 μM, compound 2 5 μM) is “did inhibit the phosphorylation of SF3B1”.
`CC(C)(C)c1cnc(CSc2cnc(NC(=O)C3CCNCC3)s2)o1` [SNS-032]: the IC50 in assay [1] (Homo sapiens, SK-MEL-2, 4 h, read-out: TESLR IC50 in inducing triple exon skipping) is above 10000 nM.
